Key:
[1] = test system: RAW 264.7 macrophages; conditions: PARP inhibition; cited from earlier work
[2] = target: PARP (Mus musculus, UniProt P11103); assay: whole cell PARP inhibition in UV-activated RAW 264.7 macrophages, PARP activity by ELISA; type: cell-based
[3] = in vivo; cited from earlier work
[4] = test system: tuberculosis; conditions: systemically delivered, despite significant plasma levels; cited from earlier work
[5] = human, in vivo; cited from earlier work

Chain of PARP (P11103 2-1013): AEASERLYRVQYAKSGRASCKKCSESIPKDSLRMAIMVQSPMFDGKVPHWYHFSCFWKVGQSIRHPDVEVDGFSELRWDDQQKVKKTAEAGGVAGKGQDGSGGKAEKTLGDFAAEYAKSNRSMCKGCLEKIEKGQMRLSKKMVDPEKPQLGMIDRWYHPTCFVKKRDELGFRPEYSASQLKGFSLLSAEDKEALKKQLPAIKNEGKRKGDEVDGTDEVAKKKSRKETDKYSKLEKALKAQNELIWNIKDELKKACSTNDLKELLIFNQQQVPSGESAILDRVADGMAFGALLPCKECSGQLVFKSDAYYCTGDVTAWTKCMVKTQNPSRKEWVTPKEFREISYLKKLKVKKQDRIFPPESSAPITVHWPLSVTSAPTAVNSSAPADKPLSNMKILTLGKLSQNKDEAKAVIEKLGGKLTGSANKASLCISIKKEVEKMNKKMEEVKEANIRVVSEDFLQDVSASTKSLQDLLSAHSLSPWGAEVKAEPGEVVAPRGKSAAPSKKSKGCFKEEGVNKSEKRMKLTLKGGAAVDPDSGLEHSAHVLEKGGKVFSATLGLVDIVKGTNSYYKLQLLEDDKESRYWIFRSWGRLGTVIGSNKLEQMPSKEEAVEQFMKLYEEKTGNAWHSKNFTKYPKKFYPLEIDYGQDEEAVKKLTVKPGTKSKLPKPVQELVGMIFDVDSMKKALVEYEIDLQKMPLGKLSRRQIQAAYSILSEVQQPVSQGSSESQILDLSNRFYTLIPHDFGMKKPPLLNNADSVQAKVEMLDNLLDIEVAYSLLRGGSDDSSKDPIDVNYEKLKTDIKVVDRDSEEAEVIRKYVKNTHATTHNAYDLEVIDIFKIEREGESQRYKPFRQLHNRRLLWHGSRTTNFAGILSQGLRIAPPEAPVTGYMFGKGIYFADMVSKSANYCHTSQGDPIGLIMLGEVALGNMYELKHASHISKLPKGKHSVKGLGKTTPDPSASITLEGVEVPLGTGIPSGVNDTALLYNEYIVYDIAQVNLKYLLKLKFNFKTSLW

SMILES | inhibition of mycobacteria-induced macrophage necrosis [1] | PARP inhibition (in words) ([2]; at levels readily achieved during conventional PZA therapy) | ratio of plasma Cmax/IC50 ([2]; known peak plasma level in TB patients over whole-cell PARP IC50) | distribution in human granulomas [3] | efficacy in vivo [4] | steady state peak plasma level [5]
NC(=O)c1cccc(N)c1 [3-aminobenzamide] | strongly inhibited | – | – | – | – | –
O=C(O)c1cnccn1 [POA, pyrazinoic acid] | – | potent inhibitor | 20 | wide distribution | ineffective | 300 µM
NC(=O)c1cnccn1 [PZA, pyrazinamide] | – | – | – | – | – | about 500 μM

From US20200009143A1, “REPURPOSING OF CANCER DRUGS FOR TREATMENT OF MYCOBACTERIUM” (STC.UNM, priority 2016, published 2020)
